Laboratory results reported in patent US20240166680A1, “NUCLEOSIDE ANALOG AND USE THEREOF” (SHANGHAI INSTITUTE OF MATERIA MEDICA, CHINESE ACADEMY OF …, priority 2021, published 2024).
pEC50: −log10 of the molar value. Read-outs that look alike come from different tables or passages of the source.

What was measured:
[1] = test system: 2019 novel coronavirus (SARS-CoV-2); test: Inhibition of SARS-CoV-2 replication in Vero cells (qRT-PCR); assay type: cell-based; conditions: Severe acute respiratory syndrome coronavirus 2, 48 hours, virus copy number in supernatant by qRT-PCR
[2] = Cytotoxicity in Vero cells (SARS-CoV-2 test); assay type: cell-based; conditions: African green monkey
[3] = Cytotoxicity in Huh7 cells (no viral infection); assay type: cell-based; conditions: human, without viral infection, read-out: HCoV OC43 (Huh7) CC50
Protocol: (§1) Determination of the inhibitory activity of compounds on the replication of respiratory syncytial virus (RSV), human coronavirus OC43, influenza A virus, and Zika virus by Cytopathogenic effect (CPE): the experimental cells were inoculated at a certain cell density to 96 well cell culture plates, and cultured overnight in a 5% CO2, 37° C. incubator. The compounds and viruses were added the next day. Depending on the tested virus, the cells were cultured in an incubator for 3-7 days under 5% CO2, 33° C. or 37° C., until 80-95% of the cells in the virus-infected control wells without compound had pathological changes. Cell viability in each well was then detected with CellTiter-Glo or CCK-8. […] The cytotoxicity test method is the same as the corresponding antiviral test method, but without viral infection.
(§2) The antiviral activity and cytotoxicity of the compound are represented by the inhibition rate (%) of the compound on the virus-induced cellular viral effect and the cell viability (%), respectively. Calculation equations are as follows:
(§3) Cell viability (%)=(reading value of test well−average value of medium control)/(average value of cell control−average value of medium control)×100;
(§4) EC50 and CC50 values were calculated by Prism software, and the inhibition curve fitting method was “log (inhibitor) vs. response—Variable slope”.

[4] = test system: respiratory syncytial virus (RSV); test: Inhibition of respiratory syncytial virus replication by CPE in HEp-2; assay type: cell-based; conditions: human respiratory syncytial virus, HEp-2, read-out: RSV (HEp-2) EC50
dengue virus (DENV) = test: Dengue virus plaque reduction assay in Vero cells; assay type: cell-based; conditions: read-out: DENV (Vero) Inhibition rate at 5 μM
Protocol: Determination of the inhibitory activity of compounds against dengue virus by plaque reduction assay: Vero cells were inoculated into 6-well cell culture plates at a density of 600,000 cells per well, and cultured overnight in a 5% CO2, 37° C. incubator. The compounds and virus (40-50 PFU/well) were added the next day. The cells were cultured in an incubator at 5% CO2 and 37° C. for 2 hours, then the supernatant was aspirated, and the low-melting point agarose culture medium containing the corresponding concentration of the compound was added. The cells were cultured in an incubator at 5% CO2, 33° C. or 37° C. for 6-7 days, until obvious virus plaques could be observed in the virus-infected control wells without compound under the microscope. Cells were fixed with 4% paraformaldehyde and stained with crystal violet. The number of plaques in each well was calculated. Cytotoxicity experiments were performed in parallel with antiviral experiments. Vero cells were inoculated into 96-well cell culture plates at a density of 20,000 cells per well, and cultured overnight in a 5% CO2, 37° C. incubator. The compounds were added the next day (1-5 concentration points, single point). The cells were cultured in an incubator at 5% CO2, 33° C. or 37° C. for 6-7 days. Cell viability in each well was then detected with CCK-8.

in vitro = conditions: human
[5] = assay type: in vivo, rat; conditions: SD rats; for AUC(0-t) / AUC(0-∞) / Cmax / T1/2 / Tmax: nucleoside metabolite in plasma; for F % (bioavailability): nucleoside metabolite
Protocol: 6 Male SD rats for each compound were divided into 2 groups (gastric administration group and intravenous injection group), 3 rats in each group. The rates were fasted for 12 h before the experiment (the intravenous experiment group was not fasted), had free access to water, and ate uniformly 4 hours after the administration. The dosages of C22 and C23 were 16 mg/kg and 20 mg/kg for intragastric administration, respectively, and the administration vehicle was 5% DMSO+5% solutol+90% saline. The intravenous injection dosages were 4 mg/kg and 5 mg/kg respectively, and the administration vehicle was DMSO/EtOH/PEG300/0.9% NaCl (5/5/40/50, v/v/v/v). 0.2 mL of blood was collected from the jugular vein 5 min, 0.25 h, 0.5 h, 1.0 h, 2.0 h, 4.0 h, 6.0 h, 8.0 h and 24 h after the administration, placed in an EDTA-K2 test tube abd centrifuged at 11,000 rpm for 5 minutes, and the plasma was separated, and stored in a −70° C. refrigerator for testing. The operation was under an ice water bath. The concentration of nucleoside metabolites in plasma was determined by LC-MS-MS, and the pharmacokinetic parameters were calculated.

influenza A virus (H3N2) = test: Inhibition of influenza virus H3N2 replication by CPE in MDCK; assay type: cell-based; conditions: MDCK cells
[6] = Cytotoxicity in MDCK cells (no viral infection); assay type: cell-based; conditions: dog, without viral infection, read-out: H3N2 (MDCK) CC50
Protocol: as §1, §2, §3, §4

Zika virus = test: Inhibition of Zika virus replication by CPE in Huh7; assay type: cell-based; conditions: for inhibition at 5 µM: Huh-7, read-out: Zika (Huh7) Inhibition rate
[7] = in monkeys; cited from earlier work
[8] = test system: porcine epidemic diarrhea virus (PEDV); test: Inhibition of PEDV replication in Vero cells by fluorescent quantitative PCR; conditions: 36 h, read-out: PEDV (Vero) EC50
[9] = assay type: in vivo, cynomolgus monkey; conditions: cynomolgus monkeys, single intragastric 0.35 mmol/kg
[10] = assay type: in vivo, rat; conditions: SD rats
Protocol: 6 Male SD rats for each compound were divided into 2 groups (gastric administration group and intravenous injection group), 3 rats in each group. The rats were fasted for 12 h before the experiment (the intravenous experiment group was not fasted), had free access to water, and ate uniformly 4 hours after the administration. […] The dosage of C38 was 10 mg/kg for intragastric administration, 2 mg/kg for intravenous injection, and the administration vehicle was DMSO/EtOH/PEG300/0.9% NaCl (5/5/40/50, v/v/v/v). 0.2 mL of blood was collected from the jugular vein at 5 min (intravenous group only), 0.25 h, 0.5 h, 1.0 h, 2.0 h, 4.0 h, 6.0 h, 8.0 h and 24 h after the administration, placed in an EDTA-K2 test tube and centrifuged at 11,000 rpm for 5 minutes, and the plasma was separated, and stored in a −70° C. refrigerator for testing. The operation was under an ice water bath. The concentration of nucleoside metabolites in plasma was determined by LC-MS-MS, and the pharmacokinetic parameters were calculated.

[11] = nucleoside metabolite in plasma, iv 2 mg/kg
[12] = nucleoside metabolite in plasma, po 10 mg/kg

## [2H]c1cc([C@]2(C#N)O[C@H](CO)[C@@H](O)[C@H]2O)n2ncnc(N)c12 [Compound C22-0]
[1]
  pEC50: 6.34
[2]
  CC50: > 10000 nM
[3]
  CC50: > 10000 nM
[4]
  pEC50: 6.25
Dengue virus (DENV)
  inhibition at 5 µM: 100%
In vitro
  CC50: > 10000 nM

## N#C[C@@]1(c2ccc3c(N)ncnn23)O[C@H](CO)[C@H]2OC(=O)O[C@H]21 [Compound C21]
[4]
  pEC50: 6.31
In vitro
  CC50: > 10000 nM

## [2H]c1cc([C@]2(C#N)O[C@H](CO)[C@H]3OC(=O)O[C@H]32)n2ncnc(N)c12 [Compound C22]
[5]; iv 4 mg/kg
  AUC(0-t): 2348 ng·h/mL
  AUC(0-∞): 2398 ng·h/mL
  Cmax: 2883 ng/mL
  T1/2: 1.35 h
[5]; po 16 mg/kg
  AUC(0-t): 7068 ng·h/mL
  AUC(0-∞): 7157 ng·h/mL
  Cmax: 2217 ng/mL
  T1/2: 1.08 h
  Tmax: 0.5 h
[5]; po 16 mg/kg vs iv 4 mg/kg
  F % (bioavailability): 75.3%

## CC(C)C(=O)OC[C@H]1O[C@@H](n2ccc(NO)nc2=O)[C@@H]2OC(=O)O[C@@H]21 [Compound A2]
Influenza A virus (H3N2)
  pEC50: < 5.00
[6]
  CC50: > 10000 nM

## N#C[C@@]1(c2ccc3c(N)ncnn23)O[C@H](CO)[C@@H](O)[C@H]1O [GS-441524, (2R,3R,4S,5R)-2-(4-aminopyrrolo[2,1-F][1,2,4]triazin-7-yl)-3,4-dihydroxy-5-(hydroxymethyl)tetrahydrofuran-2-carbonitrile]
[1]
  pEC50: 6.33
[2]
  CC50: > 10000 nM
[3]
  CC50: > 10000 nM
[4]
  pEC50: 6.14
Zika virus; Huh-7, read-out: Zika (Huh7) EC50
  pEC50: 4.82
In vitro
  CC50: > 10000 nM
[7]
  oral bioavailability: less than 10%
[8]
  pEC50: 6.51

## CC(=O)OC[C@@]1(F)O[C@@H](n2ccc(=O)[nH]c2=O)[C@@H]2OC(=O)O[C@@H]21 [Compound B38]
[4]
  pEC50: 6.00
Influenza A virus (H3N2)
  pEC50: 6.27
[6]
  CC50: > 10000 nM
In vitro
  CC50: > 10000 nM

## O=C1O[C@H]2[C@H](n3ccc(=O)[nH]c3=O)O[C@](F)(CO)[C@H]2O1 [Compound B1]
[4]
  pEC50: 6.00
Influenza A virus (H3N2)
  pEC50: 6.43
[6]
  CC50: > 10000 nM
In vitro
  CC50: > 10000 nM

## O=c1nc(NO)ccn1[C@@H]1O[C@H](CO)[C@@H](O)[C@H]1O [NHC, β-d-N4-hydroxycytidine]
[1]
  pEC50: 6.52
[2]
  CC50: > 10000 nM
[4]
  pEC50: 5.34
Influenza A virus (H3N2)
  pEC50: 6.11
[6]
  CC50: > 10000 nM
Zika virus
  inhibition at 5 µM: 66%
Dengue virus (DENV)
  inhibition at 5 µM: 40%
In vitro
  CC50: > 10000 nM
[7]
  oral bioavailability: less than 10%
[8]
  pEC50: 5.93

## O=c1ccn([C@@H]2O[C@](F)(CO)[C@@H](O)[C@H]2O)c(=O)[nH]1 [Compound B1-N, reference compound]
Influenza A virus (H3N2)
  pEC50: > 6.00
[6]
  CC50: > 10000 nM
Zika virus
  inhibition at 5 µM: 30%

## CC(C)C(=O)OC[C@@]1(F)O[C@@H](n2ccc(=O)[nH]c2=O)[C@@H]2OC(=O)O[C@@H]21 [Compound B2]
[4]
  pEC50: < 5.00
Influenza A virus (H3N2)
  pEC50: < 5.00
[6]
  CC50: > 10000 nM
In vitro
  CC50: > 10000 nM

## CC(C)[C@H](N)C(=O)OC[C@H]1O[C@@H](n2cc/c(=N/O)[nH]c2=O)[C@@H]2OC(=O)O[C@@H]21.Cl [Compound A6]
[9]; analyte A1
  AUC(0-t): 818 ng·h/mL
  Cmax: 326 ng/mL
  Tmax: 1.50 h
  t1/2: 0.91 h
[9]; nucleoside metabolite NHC
  AUC(0-t): 2417 ng·h/mL
  Cmax: 1209 ng/mL
  T1/2: 0.83 h
  Tmax: 1.50 h

## CCC(CC)COC(=O)[C@H](C)N[P@](=O)(OC[C@@]1(F)O[C@@H](n2ccc(=O)[nH]c2=O)[C@@H]2OC(=O)O[C@@H]21)Oc1ccccc1 [Compound B14]
[4]
  pEC50: 5.97
In vitro
  CC50: > 10000 nM

## [2H]c1cc([C@]2(C#N)O[C@H](CO)[C@H]3OC(CC)O[C@H]32)n2ncnc(N)c12 (some centres unmarked) [Compound C38]
[10]; [11]
  AUC(0-t): 551 ng·h/mL
  AUC(0-∞): 586 ng·h/mL
  Cmax: 217 ng/mL
  T1/2: 1.9 h
[10]; [12]
  AUC(0-t): 2388 ng·h/mL
  AUC(0-∞): 2454 ng·h/mL
  Cmax: 586 ng/mL
  T1/2: 3.1 h
  Tmax: 0.75 h
[10]; nucleoside metabolite, po 10 mg/kg vs iv 2 mg/kg
  F % (bioavailability): 87%

## CCCCCCCCCCCCCCCC(=O)OC[C@@]1(F)O[C@@H](n2ccc(=O)[nH]c2=O)[C@@H]2OC(=O)O[C@@H]21 [Compound B41]
[4]
  pEC50: 6.34
Influenza A virus (H3N2)
  pEC50: > 6.30
[6]
  CC50: > 10000 nM
In vitro
  CC50: > 10000 nM

## O=C1O[C@H]2[C@H](n3ccc(=O)[nH]c3=O)O[C@](F)(COC(=O)C3CC3)[C@H]2O1 [Compound B4]
[4]
  pEC50: 5.99
Influenza A virus (H3N2)
  pEC50: 5.86
[6]
  CC50: > 10000 nM
In vitro
  CC50: > 10000 nM

## CC(C)[C@H](N)C(=O)OC[C@@]1(F)O[C@@H](n2ccc(=O)[nH]c2=O)[C@@H]2OC(=O)O[C@@H]21 [Compound B6]
[4]
  pEC50: 5.46
Influenza A virus (H3N2)
  pEC50: > 6.30
[6]
  CC50: > 10000 nM
In vitro
  CC50: > 10000 nM

## [2H]c1cc([C@]2(C#N)O[C@H](COC(=O)C(C)C)[C@H]3OC(=O)O[C@H]32)n2ncnc(N)c12 [Compound C23]
[5]; iv 5 mg/kg
  AUC(0-t): 3954 ng·h/mL
  AUC(0-∞): 4024 ng·h/mL
  Cmax: 3903 ng/mL
  T1/2: 5.24 h
[5]; po 20 mg/kg
  AUC(0-t): 11360 ng·h/mL
  AUC(0-∞): 11393 ng·h/mL
  Cmax: 2933 ng/mL
  T1/2: 3.47 h
  Tmax: 1.0 h
[5]; po 20 mg/kg vs iv 5 mg/kg
  F % (bioavailability): 71.8%
